The supplement of paper PMC10307832

compound: c1ccc2c(CCNc3ccc(Nc4ccncc4)cc3)c[nH]c2c1 [Serdemetan] + O=C(CCCCCCC(=O)Nc1ccccc1)NO [Vorinostat] (partner 1 µM); experiment: relative viability (nuclei count vs DMSO), 5 days (fraction); higher = more cells survive; details: first compound 0.04 µM
In short: (§1)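 Lung cancer cell lines in 1536-well plates were dosed by pin tool the day after seeding, either with one drug alone or with a fixed anchor-drug dose plus five library-drug doses (not always all listed) in √10 steps. After 5 days, cells were fixed and their nuclei stained in one step (final 0.05% Triton X-100, 1% formaldehyde, 1 ug/ml Hoechst), then counted on 4× images. Relative viability is the nuclei count in treated wells divided by that in vehicle wells. Values are medians of duplicate plates.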

Cell Line	relative viability
SK-MES-1	0.962
IA-LM	1.05
NCI-H2170	0.828
HCC-44	1.05
SW 900	0.485
NCI-H1395	0.574
NCI-H1793	0.808
NCI-H1944	0.485
ABC-1	0.985
NCI-H358	0.677

same assay, conditions: first compound 0.1265 µM

Cell Line	relative viability
NCI-H522	0.955
NCI-H727	1.12
NCI-H1650	0.663
NCI-H1993	0.609
SW 1573	0.932
NCI-H838	0.69
LCLC-103H	0.852
NCI-H520	0.688
NCI-H2126	0.913
EMC-BAC-2	0.471
NCI-H2085	0.776
HCC-366	0.166
NCI-H1666	0.935
NCI-H596	0.543
LK-2	0.371
NCI-H2087	0.316
NCI-H2342	0.731
SK-MES-1	1.08
IA-LM	0.964
NCI-H2170	0.834
HCC-44	1.12
SW 900	0.569
NCI-H1648	0.552
NCI-H1395	0.848
NCI-H1793	0.671
NCI-H1944	0.628
ABC-1	0.949
NCI-H358	0.689

same assay, conditions: first compound 0.4 µM

Cell Line	relative viability
NCI-H522	0.923
NCI-H727	1.12
NCI-H1650	0.518
NCI-H1993	0.669
SW 1573	0.974
NCI-H838	0.684
LCLC-103H	0.773
NCI-H520	0.683
NCI-H2126	0.628
EMC-BAC-2	0.495
NCI-H2085	0.695
HCC-366	0.191
NCI-H1666	0.907
NCI-H596	0.578
LK-2	0.372
NCI-H2087	0.527
NCI-H2342	1.07
SK-MES-1	0.889
IA-LM	0.9
NCI-H2170	0.806
HCC-44	1.05
SW 900	0.53
NCI-H1648	0.329
NCI-H1395	0.696
NCI-H1793	0.439
NCI-H1944	0.635
ABC-1	0.989
NCI-H358	0.612

same assay, conditions: first compound 1.265 µM

Cell Line	relative viability
NCI-H522	0.831
NCI-H727	1.28
NCI-H1650	0.291
NCI-H1993	0.767
SW 1573	0.615
NCI-H838	0.728
LCLC-103H	0.75
NCI-H520	0.438
NCI-H2126	0.669
EMC-BAC-2	0.379
NCI-H2085	0.484
HCC-366	0.047
NCI-H596	0.428
LK-2	0.221
NCI-H2087	0.226
NCI-H2342	0.908
SK-MES-1	0.962
IA-LM	0.81
NCI-H2170	0.733
HCC-44	1.05
SW 900	0.393
NCI-H1648	0.398
NCI-H1395	0.526
NCI-H1793	0.286
NCI-H1944	0.339
ABC-1	0.832
NCI-H358	0.402

same assay, conditions: first compound 4 µM

Cell Line	relative viability
NCI-H522	0.799
NCI-H727	0.849
NCI-H1650	0.42
NCI-H1993	0.782
SW 1573	0.208
NCI-H838	0.696
LCLC-103H	0.779
NCI-H520	0.548
NCI-H2126	0.659
EMC-BAC-2	0.399
NCI-H2085	0.524
HCC-366	0.0752
NCI-H1666	0.713
NCI-H596	0.425
LK-2	0.461
NCI-H2087	0.213
NCI-H2342	0.478
SK-MES-1	0.71
IA-LM	0.419
NCI-H2170	0.876
HCC-44	0.825
SW 900	0.455
NCI-H1648	0.252
NCI-H1395	0.508
NCI-H1793	0.397
NCI-H1944	0.294
ABC-1	0.787
NCI-H358	0.461

compound: c1ccc2c(CCNc3ccc(Nc4ccncc4)cc3)c[nH]c2c1 [Serdemetan] + Cc1nc(Nc2ncc(C(=O)Nc3c(C)cccc3Cl)s2)cc(N2CCN(CCO)CC2)n1 [Dasatinib] (partner 0.075 µM); experiment: as above; details: first compound 0.04 µM
In short: as §1

Cell Line	relative viability
NCI-H522	0.807
NCI-H1623	0.549
NCI-H727	0.36
NCI-H1650	0.297
NCI-H1993	0.578
SW 1573	0.452
NCI-H838	0.291
LCLC-103H	0.466
NCI-H520	0.244
NCI-H2126	0.643
EMC-BAC-2	0.304
NCI-H2085	0.242
HCC-366	0.637
NCI-H1666	0.797
NCI-H596	0.677
LK-2	0.315
NCI-H2087	0.979
NCI-H2342	0.309
SK-MES-1	0.337
NCI-H2170	0.437
SW 900	0.502
NCI-H1395	0.396
NCI-H1792	0.746
NCI-H1793	0.355
NCI-H1563	0.496
NCI-H1944	0.201
ABC-1	0.541
NCI-H358	0.185

same assay, conditions: first compound 0.1265 µM

Cell Line	relative viability
NCI-H522	0.844
NCI-H1623	0.628
NCI-H727	0.42
NCI-H1650	0.345
NCI-H1993	0.698
SW 1573	0.488
NCI-H838	0.345
LCLC-103H	0.434
NCI-H520	0.182
NCI-H2126	0.665
EMC-BAC-2	0.358
NCI-H2085	0.222
HCC-366	0.472
NCI-H1666	0.736
NCI-H596	0.637
LK-2	0.269
NCI-H2087	0.712
NCI-H2342	0.302
SK-MES-1	0.378
NCI-H2170	0.612
SW 900	0.471
NCI-H1395	0.42
NCI-H1792	0.773
NCI-H1793	0.308
NCI-H1563	0.466
NCI-H1944	0.212
ABC-1	0.575
NCI-H358	0.167

same assay, conditions: first compound 0.4 µM

Cell Line	relative viability
NCI-H522	0.911
NCI-H1623	0.359
NCI-H727	0.445
NCI-H1650	0.272
NCI-H1993	0.517
SW 1573	0.511
NCI-H838	0.272
LCLC-103H	0.539
NCI-H520	0.223
NCI-H2126	0.517
EMC-BAC-2	0.344
NCI-H2085	0.278
HCC-366	0.542
NCI-H1666	0.829
NCI-H596	0.645
LK-2	0.334
NCI-H2087	0.763
NCI-H2342	0.291
SK-MES-1	0.327
NCI-H2170	0.474
SW 900	0.484
NCI-H1395	0.481
NCI-H1792	0.747
NCI-H1793	0.383
NCI-H1563	0.452
NCI-H1944	0.218
ABC-1	0.585
NCI-H358	0.161

same assay, conditions: first compound 1.265 µM

Cell Line	relative viability
NCI-H1623	0.442
NCI-H727	0.251
NCI-H1650	0.34
NCI-H1993	0.507
SW 1573	0.396
NCI-H838	0.276
LCLC-103H	0.331
NCI-H2126	0.467
EMC-BAC-2	0.268
NCI-H2085	0.269
HCC-366	0.0442
NCI-H1666	0.597
NCI-H596	0.565
LK-2	0.233
NCI-H2087	0.418
NCI-H2342	0.28
SK-MES-1	0.379
NCI-H2170	0.513
SW 900	0.385
NCI-H1395	0.406
NCI-H1792	0.533
NCI-H1793	0.21
NCI-H1563	0.457
NCI-H1944	0.131
ABC-1	0.402
NCI-H358	0.146

same assay, conditions: first compound 4 µM

Cell Line	relative viability
NCI-H522	0.946
NCI-H1623	0.562
NCI-H727	0.25
NCI-H1650	0.268
NCI-H1993	0.461
SW 1573	0.217
NCI-H838	0.273
LCLC-103H	0.482
NCI-H520	0.198
NCI-H2126	0.557
EMC-BAC-2	0.293
NCI-H2085	0.166
HCC-366	0.155
NCI-H1666	0.663
NCI-H596	0.522
LK-2	0.379
NCI-H2087	0.27
NCI-H2342	0.301
SK-MES-1	0.267
NCI-H2170	0.569
SW 900	0.345
NCI-H1395	0.281
NCI-H1792	0.493
NCI-H1793	0.259
NCI-H1563	0.461
NCI-H1944	0.164
ABC-1	0.429
NCI-H358	0.17
